From patent publication US20170280720A1, “ARGININE […] INHIBITORS AND USES THEREOF” (EPIZYME, INC., priority 2014, published 2017)
Structures can show the parent of a compound that is named as a salt.

biological target: T1, human PRMT1 (Homo sapiens, UniProt Q99873); test: PRMT1 biochemical assay (3H-SAM Flashplate, peptide substrate); conditions: read-out: PRMT1_ IC50
T1 construct: GST-tagged PRMT1; made in house; host or cells: High Five insect cells (baculovirus, pFastBacI)
Text: S-adenosylmethionine (SAM), S-adenosylhomocysteine (SAH), bicine, Tween20, dimethylsulfoxide (DMSO), bovine skin gelatin (BSG), and Tris(2-carboxyethyl)phosphine hydrochloride solution (TCEP) were purchased from Sigma-Aldrich at the highest level of purity possible. ^3H-SAM was purchase from American Radiolabeled Chemicals with a specific activity of 80 Ci/mmol. 384-well streptavidin Flashplates were purchased from PerkinElmer.
Peptide representative of human histone H4 residues 36-50 was synthesized with an N-terminal linker-affinity tag motif and a C-terminal amide cap by 21st Century Biochemicals. The peptide was purified by high-performance liquid chromatography (HPLC) to greater than 95% purity and confirmed by liquid chromatography mass spectrometry (LC-MS). The sequence was Biot-Ahx-[…]-amide (SEQ ID NO.: 1).
Full-length human PRMT1 isoform 1 (NM_001536.5) transcript clone was amplified from an HEK 293 cDNA library, incorporating flanking 5′ sequence encoding a FLAG tag ([…]) (SEQ ID NO.: 2) fused directly to Met 1 of PRMT1. The amplified gene was subcloned into pFastBacI (Life Technologies) modified to encode an N-terminal GST tag and a TEV cleavage sequence ([…] […] […] […] QGGNS)(SEQ ID NO.: 3) fused to Asp of the Flag tag of PRMT1.
Recombinant baculovirus were generated according to Bac-to-Bac kit instructions (Life Technologies). Protein over-expression was accomplished by infecting exponentially growing High Five insect cell culture at 1.5×10^6 cell/ml with 1:100 ratio of virus. Infections were carried out at 27° C. for 48 hours, harvested by centrifugation, and stored at −80° C. for purification.
GST-tagged PRMT1 was eluted with 50 mM Tris, 2 mM glutathione, pH 7.8, dialysed in buffer A and concentrated to 1 mg/mL. The purity of recovered protein was 73%. Reference: Wasilko, D. J. and S. E. Lee: “TIPS: titerless infected-cells preservation and scale-up” Bioprocess J., 5 (2006), pp. 29-32.
General Procedure for PRMT1 Enzyme Assays on Peptide Substrates.
The assays were all performed in a buffer consisting of 20 mM Bicine (pH=7.6), 1 mM TCEP, 0.005% BSG, and 0.002% Tween 20, prepared on the day of use. Compounds in 100% DMSO (1 ul) were spotted into a polypropylene 384-well V-bottom plates (Greiner) using a Platemate Plus outfitted with a 384-channel head (Thermo Scientific). DMSO (1 ul) was added to Columns 11, 12, 23, 24, rows A-H for the maximum signal control and 1 ul of SAH, a known product and inhibitor of PRMT1, was added to columns 11, 12, 23, 24, rows I-P for the minimum signal control. A cocktail (40 ul) containing the PRMT1 enzyme was added by Multidrop Combi (Thermo-Fisher). The compounds were allowed to incubate with PRMT1 for 30 min at room temperature, then a cocktail (10 ul) containing SAM and peptide was added to initiate the reaction (final volume=51 ul). The final concentrations of the components were as follows: PRMT1 was 0.5 nM, ^3H-SAM was 200 nM, non-radiolabeled SAM was 1.5 uM, peptide was 20 nM, SAH in the minimum signal control wells was 1 mM, and the DMSO concentration was 2%. The assays were stopped by the addition of non-radiolabeled SAM (10 ul) to a final concentration of 300 uM, which dilutes the ^3H-SAM to a level where its incorporation into the peptide substrate is no longer detectable. 50 ul of the reaction in the 384-well polypropylene plate was then transferred to a 384-well Flashplate and the biotinylated peptides were allowed to bind to the streptavidin surface for at least 1 hour before being washed once with 0.1% Tween20 in a Biotek ELx405 plate washer. The plates were then read in a PerkinElmer TopCount plate reader to measure the quantity of ^3H-labeled peptide bound to the Flashplate surface, measured as disintegrations per minute (dpm) or alternatively, referred to as counts per minute (cpm).
Where dpm=disintegrations per minute, cmpd=signal in assay well, and min and max are the respective minimum and maximum signal controls. […]

T1 sequence (Q99873 with tags, fused parts or gaps): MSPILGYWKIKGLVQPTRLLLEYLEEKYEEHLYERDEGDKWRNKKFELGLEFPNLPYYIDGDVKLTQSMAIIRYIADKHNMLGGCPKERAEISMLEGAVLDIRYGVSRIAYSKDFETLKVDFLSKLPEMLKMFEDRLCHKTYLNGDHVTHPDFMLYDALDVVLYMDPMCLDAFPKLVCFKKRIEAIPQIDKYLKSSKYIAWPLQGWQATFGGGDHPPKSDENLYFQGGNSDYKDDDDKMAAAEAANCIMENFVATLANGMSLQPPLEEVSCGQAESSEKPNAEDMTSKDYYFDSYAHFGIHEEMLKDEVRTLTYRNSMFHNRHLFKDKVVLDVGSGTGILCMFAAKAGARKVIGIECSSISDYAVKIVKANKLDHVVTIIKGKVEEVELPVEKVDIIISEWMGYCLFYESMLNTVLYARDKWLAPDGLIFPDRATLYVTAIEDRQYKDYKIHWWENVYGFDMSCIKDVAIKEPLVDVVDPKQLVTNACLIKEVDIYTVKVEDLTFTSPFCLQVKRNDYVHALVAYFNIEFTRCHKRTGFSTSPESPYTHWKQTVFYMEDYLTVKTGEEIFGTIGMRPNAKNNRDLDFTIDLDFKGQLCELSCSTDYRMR

Structure (SMILES)	IC50 [µM]
CN(CCN)Cc1cccc(-c2nc(NCc3ccncc3)c3cnn(C4CC4)c3n2)c1 [Compound 66]	0.274
CNCCN(C)Cc1cccc(-c2cc(-c3ccoc3)c3cnn(C(C)C)c3n2)c1 [Compound 67]	0.275
CNCCN(C)Cc1cccc(-c2cc(N3CCOCC3)c3cnn(C(C)C)c3n2)c1 [Compound 68]	0.277
CNCCN(C)Cc1cccc(-c2nc(NCc3ccncc3)c3cnn(C4CC4)c3n2)c1 [Compound 69]	0.282
NCCNCc1ccc(-c2ccc3ncn(CC4CCNCC4)c3c2)cc1 [Compound 70]	0.295
COC(=O)Nc1cc(-c2cccc(CN(C)CCN)c2)nc2c1cnn2C(C)C [Compound 71]	0.302
CCNc1cc(-c2cccc(CN(C)CCNC)c2)nc2c1cnn2C(C)C [Compound 72]	0.303
CNCCN(C)Cc1cccc(-c2ccc3cnn(C(C)C)c3n2)c1 [Compound 73]	0.306
CNCCN(C)Cc1cccc(-c2cc(C#N)c3cnn(C(C)C)c3n2)c1 [Compound 74]	0.309
CNCCN(C)Cc1cccc(-c2ccc3nc[nH]c3c2)c1 [Compound 75]	0.312
CNCCN(C)Cc1cccc(-c2cc(NC3CCOCC3)c3cnn(C(C)C)c3n2)c1 [Compound 76]	0.317
CCOC(=O)c1cc(-c2cccc(CN(C)CCNC)c2)nc2c1cnn2C(C)C [Compound 78]	0.337
CNCCN(C)Cc1cccc(-c2cc(N3CCC3)c3cnn(C(C)C)c3n2)c1 [Compound 79]	0.341
COc1ccccc1Cn1cnc2ccc(-c3ccc(CNCCN)cc3)cc21 [Compound 80]	0.345
NCCNCc1ccc(-c2ccc3ncn(CC4CCCNC4)c3c2)cc1 (centres unmarked) [Compound 81]	0.359
Cc1ccccc1Cn1cnc2ccc(-c3ccc(CNCCN)cc3)cc21 [Compound 82]	0.375

Structure (SMILES)	IC50 [µM]
CNCCN(C)Cc1cccc(-c2cc(C(=O)NCCC(=O)NCc3ccn(C)n3)c3cnn(C(C)C)c3n2)c1 [Compound 83]	0.378
CC(C)n1ncc2c(NC(=O)OCc3ccccc3)cc(-c3cccc(CN(C)CCN)c3)nc21 [Compound 84]	0.387
CNCCN(C)Cc1cccc(-c2cc(NC(=O)NC(C)C)c3cnn(C(C)C)c3n2)c1 [Compound 85]	0.391
CC(C)NC(=O)Nc1cc(-c2cccc(CN(C)CCN)c2)nc2c1cnn2C(C)C [Compound 86]	0.397
CNCCN(C)Cc1cccc(-c2cc(C(=O)NC3CCOCC3)c3cnn(C4CC4)c3n2)c1 [Compound 87]	0.412
CNCCN(C)Cc1cccc(-c2cc(C(=O)NCCCC(=O)NCc3ccn(C)n3)c3cnn(C(C)C)c3n2)c1 [Compound 88]	0.413
CNCCN(C)Cc1cccc(-c2ccc3ncn(C)c3c2)c1 [Compound 92]	0.432
CNCCN(C)Cc1cccc(-c2cc(N3CCC(C#N)CC3)c3cnn(C(C)C)c3n2)c1 [Compound 93]	0.433
COc1cccc(CCn2cnc3ccc(-c4ccc(CNCCN)cc4)cc32)c1 [Compound 94]	0.446
CNCCN(C)Cc1cccc(-c2cc(N(C)C3CC3)c3cnn(C(C)C)c3n2)c1 [Compound 95]	0.451
CN(CCN)Cc1cccc(-c2nc(NC3CC3)c3cnn(C4CC4)c3n2)c1 [Compound 96]	0.451
Cc1ccc(Cn2cnc3ccc(-c4ccc(CNCCN)cc4)cc32)cc1 [Compound 97]	0.452
CNCCN(C)Cc1cccc(-c2cc(C(=O)NCc3ccccn3)c3cnn(C(C)C)c3n2)c1 [Compound 98]	0.456
CNCCN(C)Cc1cccc(-c2nc(N3CCOCC3)c3cnn(C(C)C)c3n2)c1 [Compound 99]	0.457
CNCCN(C)Cc1cccc(-c2ccc3cnn(C(C)C)c3c2)c1 [Compound 100]	0.477

The remaining compounds from weak to strong by IC50, led by results:

IC50 [µM]	Structure (SMILES)
0.271	CC(C)n1ncc2c(C(=O)NCc3ccccc3F)cc(-c3cccc(CN(C)CCN)c3)nc21 [Compound 65]
0.271	CNCCN(C)Cc1cccc(-c2cc(C(=O)NCCC(=O)NCC3CCOCC3)c3cnn(C(C)C)c3n2)c1 [Compound 64]
0.262	CNCCN(C)Cc1cccc(-c2nc(NCc3cccnc3)c3cnn(C4CC4)c3n2)c1 [Compound 63]
0.258	CNCCN(C)Cc1cccc(-c2cc(N3CCOCC3)n3ncc(C(C)C)c3n2)c1 [Compound 62, N1-(3-(3-isopropyl-7-morpholinopyrazolo[1,5-a]pyrimidin-5-yl)benzyl)-N1,N2-dimethylethane-1,2-diamine formate]
0.249	CC(C)n1ncc2c(N3CCOCC3)cc(-c3cccc(CN(C)CCN)c3)nc21 [Compound 61, N1-(3-(1-isopropyl-4-morpholino-1H-pyrazolo[3,4-b]pyridin-6-yl)benzyl)-N1-methylethane-1,2-diamine]
0.248	CNCCN(C)Cc1cccc(-c2cc(C(=O)NCCCC(=O)NCC3CCOCC3)c3cnn(C(C)C)c3n2)c1 [Compound 60]
0.244	CC(C)n1cc2c(Cl)cc(-c3cccc(CN(C)CCN)c3)nc2n1 [Compound 59]
0.239	CNCCN(C)Cc1cccc(-c2cc(NC3COC3)c3cnn(C(C)C)c3n2)c1 [Compound 58]
0.238	CNCCN(C)Cc1cccc(-c2nc(NCc3cnn(C)c3C)c3cnn(C4CC4)c3n2)c1 [Compound 57]
0.238	CNCCN(C)Cc1cccc(-c2cc(C(=O)N3CCCCC3)c3cnn(C(C)C)c3n2)c1 [Compound 56]
0.236	CNCCN(C)Cc1cccc(-c2cc(N3CCCC(C#N)C3)c3cnn(C(C)C)c3n2)c1 (centres unmarked) [Compound 55]
0.231	CC(C)n1ncc2c(C(=O)NCc3ccccc3Cl)cc(-c3cccc(CN(C)CCN)c3)nc21 [Compound 54]
0.228	CCOc1cc(-c2cccc(CN(C)CCNC)c2)nc2c1cnn2C(C)C [Compound 53]
0.226	Cc1c(CNc2nc(-c3cccc(CN(C)CCN)c3)nc3c2cnn3C2CC2)cnn1C [Compound 52]
0.226	CNCCN(C)Cc1cccc(-c2cc(N3CCC(OC)CC3)c3cnn(C(C)C)c3n2)c1 [Compound 51]
0.223	CNCCN(C)Cc1cccc(-c2cc(N3CCC(C(F)(F)F)CC3)c3cnn(C(C)C)c3n2)c1 [Compound 50]
0.213	CNCCN(C)Cc1cccc(-c2cc(-c3cnn(C)c3)c3cnn(C(C)C)c3n2)c1 [Compound 49, N1-(3-(1-isopropyl-4-(1-methyl-1H-pyrazol-4-yl)-1H-pyrazolo[3,4-b]pyridin-6-yl)benzyl)-N1,N2-dimethylethane-1,2-diamine]
0.212	CCC(O)c1cc(-c2cccc(CN(C)CCNC)c2)nc2c1cnn2C(C)C (centres unmarked) [Compound 48]
0.0473	CNCCN(C)Cc1cccc(-c2nc(NCc3ccccn3)c3cnn(C4CC4)c3n2)c1 [Compound 9]
0.047	COc1cccc(Cn2cnc3ccc(-c4ccc(CN(C)CCN)cc4)cc32)c1 [Compound 8]
0.0452	Cc1c(C(=O)NCc2ccccc2)cc(-c2ccc(CN(C)CCN)cc2)c2cn[nH]c12 [Compound 7]
0.0369	CNCCN(C)Cc1cccc(-c2nc(NCc3cn4ccsc4n3)c3cnn(C4CC4)c3n2)c1 [Compound 6]
0.0369	CN(CCN)Cc1cccc(-c2nc(NCc3cn4ccsc4n3)c3cnn(C4CC4)c3n2)c1 [Compound 5]
0.0348	CNCCN(C)Cc1cccc(-c2cnc3c(c2)c(C2CC2)nn3CC2CCOCC2)c1 [Compound 4]
0.0267	CC(C)n1ncc2c(C(=O)N(C)[C@@H](C)c3ccccc3)cc(-c3cccc(CN(C)CCN)c3)cc21 [Compound 3]
